Measurements taken from patent US12383527B2, “Methods for treating triple negative breast cancer using salvianolic acid B” (HOWARD UNIVERSITY, priority 2018, dated 2025).

Assays:
[1] = tested on: cyclin B1; assay: Western blot of cyclin B1 expression in MDA and MCF-7 cells; type: cell-based, human; settings: Sal-B 50 μM and 100 μM, 24 hours
Procedure: The expression of two cell cycle-related proteins—cyclin A and cyclin B1—was checked by Western blot. The expression of cyclin A and cyclin B1 was normalized by the expression of the internal control β-actin (lower panel). The cells were treated with 50 μM and 100 μM Sal-B, respectively, for 24 hours. Doxorubicin (0.1 μM and 1 μM) was used as a control. […] The results may be explained by that the cell cycle progression is controlled by a large set of molecules, although cyclin B1 is a key component in the control of cell cycle progression from G2 to M phase.
(§1) The immunohistochemical results were consistent with those from Western blotting (FIG. 7, panel A). Western blot analysis was used to determine the expression of apoptosis-related proteins Bcl-XL, survivin, caspase-3 and caspase-8 (FIG. 7, panel A). β-actin was used as an internal control for Western blotting. The MCD-7 and MDA cells were treated with Sal-B (50 μM and 100 μM) and doxorubicin (0.1 μM and 1 μM), respectively, for 24 hours. Proteins were extracted from the cells with RIPA lysis buffer (Santa Cruz Biotechnology, Santa Cruz, CA) and the protein concentrations were quantified with Bio-Rad protein quantification kit. Whole-cell proteins were separated on 8% SDS-polyacrylamide gel, transferred to the polyvinylidene difluoride membrane (Bio-Rad), and then probed with the indicated primary antibodies overnight at 4° C. Washed blots were then incubated with horseradish peroxidase-conjugated anti-rabbit, anti-mouse, or anti-goat antibody (Santa Cruz Biotechnology), respectively, for one hour at room temperature. Blots were developed and visualized with ECL detection system (Bio-Rad).

[2] = tested on: p-ERK; assay: Western blot of p-ERK expression in MCF-7 and MDA cells; type: cell-based, human; settings: different concentrations of Sal-B, 24 hours
Procedure: as §1
Because phospho-p44/42 extracellular signal-regulated kinases (p-ERK) is a key enzyme in the MAPK signal pathway, the expression of p-ERK was also investigated in MCF-7 and MDA cells following exposure to different concentrations of Sal-B for 24 hours.

[3] = tested on: Bcl-xL; assay: Western blot of Bcl-xL expression in MDA and MCF-7 cells; type: cell-based, human; settings: Sal-B 50 μM and 100 μM, 24 hours
Procedure: as §1

[4] = tested on: ceramides; assay: Immunohistochemistry of ceramides in MDA tumor xenografts; type: in vivo, athymic nude mice; settings: Sal-B 80 mg/kg three times per week; untreated control 2.3±0.7; P<0.05
Procedure: (§2) Human tumor xenografts in athymic nude mice. […] The animal protocol was approved by the Howard University Animal Care and Use Committee. Four-week-old female athymic nude mice (Nu/Nu) were obtained from Harlan Sprague Dawley (Indianapolis, IN). All mice were provided the Harlan Teklad #2018 Global 18% protein rodent diet and water ad libitum. Mice were housed in temperature-controlled rooms (74±2° F.) with a 12-hour alternating light-dark cycle. MDA cells (3×10^6/50 μL/spot) were subcutaneously injected into the both sides of lower back of mice using a 27-gauge needle. […]
Immunohistochemical staining was performed as described previously (Hao Y, et al., “Enforced expression of miR-101 inhibits prostate cancer cell growth by modulating the COX-2 pathway in vivo,” Cancer Prev Res (Phila), 2011; 4: 1073-1083). […] For the quantification, ten high-magnification (40×) fields were randomly selected from each slide of tumors and the positive cells were counted. The protein expression was expressed as the average number of positive cells per high magnification field. […]

[5] = tested on: glucosylceramide synthase (GCS); assay: Western blot of GCS expression in MDA and MCF-7 cells; type: cell-based, human; settings: for GCS protein level (normalized to β-actin): Sal-B 50 μM; for GCS expression, further effect versus 50 μM: Sal-B 100 μM
Procedure: as §1
To understand the mechanism underlying increased ceramide accumulation, the expression levels of GCS and GM3 synthase were measured by Western blot analysis in MDA and MCF-7 cells treated by various concentrations of Sal-B (FIG. 8). The amount of protein expression was normalized by the expression of the internal control β-actin. […] Sal-B was found effective to down-regulate GCS and GM3 synthase expression in cancer cells.

[6] = tested on: Bcl-xL; assay: Immunohistochemical staining of Bcl-xL in MDA tumor xenografts; type: in vivo, athymic nude mice; settings: Sal-B 80 mg/kg three times per week; untreated tumors 11.8±3.0; P<0.05
Procedure: as §2
Immunohistochemical staining was performed as described previously (Hao Y, et al., “Enforced expression of miR-101 inhibits prostate cancer cell growth by modulating the COX-2 pathway in vivo,” Cancer Prev Res (Phila), 2011; 4: 1073-1083). […] For the quantification, ten high-magnification (40×) fields were randomly selected from each slide of tumors and the positive cells were counted. The protein expression was expressed as the average number of positive cells per high magnification field.

[7] = tested on: MDA tumor xenografts; assay: TUNEL assay of apoptotic cells in MDA tumor xenografts; type: in vivo, athymic nude mice; settings: Sal-B 80 mg/kg three times per week; untreated tumors 3.1±1.8; P<0.05
Procedure: as §2
Apoptotic cells in MDA tumor xenografts were also analyzed by a terminal deoxynucleotidyl transferase-mediated dUTP nick end labeling (TUNEL) assay using the TdT-FragEL DNA Fragmentation Detection Kit (EMD Millipore, Burlington, MA) as previously described (Li H, et al., “Cellular uptake and anticancer activity of salvianolic acid B phospholipid complex loaded nanoparticles in head and neck cancer and precancer cells,” Colloids Surf B Biointerfaces. 2016; 147: 65-72). […]

[8] = tested on: GM3 synthase; assay: Western blot of GM3 synthase expression in MDA and MCF-7 cells; type: cell-based, human
Procedure: as §1
To understand the mechanism underlying increased ceramide accumulation, the expression levels of GCS and GM3 synthase were measured by Western blot analysis in MDA and MCF-7 cells treated by various concentrations of Sal-B (FIG. 8). […]

## O=C(/C=C/c1ccc(O)c2c1[C@H](C(=O)O[C@H](Cc1ccc(O)c(O)c1)C(=O)O)[C@@H](c1ccc(O)c(O)c1)O2)O[C@H](Cc1ccc(O)c(O)c1)C(=O)O [Sal-B, Salvianolic acid B]
[1]; MCF-7 cells
  cyclin B1 expression (normalized to β-actin): down-regulation
[1]; MDA cells
  cyclin B1 expression (normalized to β-actin): down-regulation
[2]; MCF-7 cells
  p-ERK expression (normalized to β-actin): down-regulated
[2]; MDA cells
  p-ERK expression (normalized to β-actin): down-regulated
[3]; MCF-7 cells
  Bcl-xL protein expression: downregulated
[3]; MDA cells
  Bcl-xL protein expression: downregulated
[4]
  ceramide levels in tumor xenografts (ceramide positive cells counted): 9.6±2.4
[5]; MCF-7 cells
  GCS protein level (normalized to β-actin): sufficient to inhibit GCS protein level
  GCS expression, further effect versus 50 μM: No further inhibitory effect
[5]; MDA cells
  GCS protein level (normalized to β-actin): sufficient to inhibit GCS protein level
  GCS expression, further effect versus 50 μM: No further inhibitory effect
[6]
  expression of Bcl-xL in tumors: 1.3±0.4 positive cells per high magnif
[7]
  number of apoptotic cells (TUNEL): 12.2±3.2
[8]; MCF-7 cells, Sal-B 100 μM
  expression of GM3 synthase (normalized to β-actin): significantly diminished
[8]; MDA cells, Sal-B at both 50 μM and 100 μM
  expression of GM3 synthase (normalized to β-actin): significantly diminished
